Measurements from the NIST ThermoML archive (doi:10.1016/j.jct.2009.02.007).
± gives the expanded uncertainty stated by the source.

What was measured:
[1] = 101.33 kPa, Liquid, Vibrating tube method
[2] = xn = mol fraction of the nth substance listed; details: 101 kPa, Liquid, Vibrating tube method

Q: Which mass density ([1]; 298.15 K) does the source give for `CCCCn1cc[n+](C)c1.F[B-](F)(F)F` [1-butyl-3-methylimidazolium tetrafluoroborate] here?
A: 1211.03 ± 1.3 kg/m3

Q: What about the mass density ([1]; 303.15 K) of the same compound?
A: 1197.45 ± 1.3 kg/m3

Q: And the mass density ([1]; 308.15 K)?
A: 1194.6 ± 1.3 kg/m3

Q: And the mass density ([1]; 313.15 K)?
A: 1190.44 ± 1.2 kg/m3

Q: What does the source list for `O=Cc1ccccc1` [benzaldehyde]?
A: mass density ([1]; 298.15 K): 1044.2 ± 0.26 kg/m3; mass density ([1]; 303.15 K): 1040.21 ± 0.26 kg/m3; mass density ([1]; 308.15 K): 1036.15 ± 0.26 kg/m3; mass density ([1]; 313.15 K): 1032.15 ± 0.25 kg/m3

Q: With `O=Cc1ccccc1` [benzaldehyde] + CCCCn1cc[n+](C)c1.F[B-](F)(F)F as the compound, how does the mass density ([2]; 298.15 K, x2 = 0.1001) read?
A: 1078.64 ± 0.34 kg/m3

Q: What about the mass density ([2]; 298.15 K, x2 = 0.1998) of the same compound?
A: 1105.45 ± 0.42 kg/m3

Q: And the mass density ([2]; 298.15 K, x2 = 0.2997)?
A: 1127.3 ± 0.51 kg/m3

Q: What about the mass density ([2]; 298.15 K, x2 = 0.4) of the same compound?
A: 1145.56 ± 0.6 kg/m3

Q: And the mass density ([2]; 298.15 K, x2 = 0.4999)?
A: 1160.76 ± 0.7 kg/m3

Q: What about the mass density ([2]; 298.15 K, x2 = 0.5998) of the same compound?
A: 1173.77 ± 0.81 kg/m3

Q: What about the mass density ([2]; 298.15 K, x2 = 0.6999) of the same compound?
A: 1184.7 ± 0.92 kg/m3

Q: What about the mass density ([2]; 298.15 K, x2 = 0.7971) of the same compound?
A: 1193.8 ± 1 kg/m3

Q: What about the mass density ([2]; 298.15 K, x2 = 0.8991) of the same compound?
A: 1202.44 ± 1.2 kg/m3

Q: And the mass density ([2]; 303.15 K, x2 = 0.1001)?
A: 1072.78 ± 0.34 kg/m3

Q: What about the mass density ([2]; 303.15 K, x2 = 0.1998) of the same compound?
A: 1098.6 ± 0.42 kg/m3

Q: And the mass density ([2]; 303.15 K, x2 = 0.2997)?
A: 1119.46 ± 0.5 kg/m3

Q: And the mass density ([2]; 303.15 K, x2 = 0.4)?
A: 1136.76 ± 0.59 kg/m3

Q: What about the mass density ([2]; 303.15 K, x2 = 0.4999) of the same compound?
A: 1151.14 ± 0.69 kg/m3

Q: And the mass density ([2]; 303.15 K, x2 = 0.5998)?
A: 1163.4 ± 0.79 kg/m3

Q: And the mass density ([2]; 303.15 K, x2 = 0.6999)?
A: 1173.86 ± 0.9 kg/m3

Q: What about the mass density ([2]; 303.15 K, x2 = 0.7971) of the same compound?
A: 1182.59 ± 1 kg/m3

Q: And the mass density ([2]; 303.15 K, x2 = 0.8991)?
A: 1190.51 ± 1.1 kg/m3

Q: And the mass density ([2]; 308.15 K, x2 = 0.1001)?
A: 1068.6 ± 0.33 kg/m3

Q: And the mass density ([2]; 308.15 K, x2 = 0.1998)?
A: 1094.81 ± 0.41 kg/m3

Q: What about the mass density ([2]; 308.15 K, x2 = 0.2997) of the same compound?
A: 1116.11 ± 0.5 kg/m3

Q: And the mass density ([2]; 308.15 K, x2 = 0.4)?
A: 1133.67 ± 0.59 kg/m3

Q: What about the mass density ([2]; 308.15 K, x2 = 0.4999) of the same compound?
A: 1148.32 ± 0.68 kg/m3

Q: What about the mass density ([2]; 308.15 K, x2 = 0.5998) of the same compound?
A: 1160.74 ± 0.78 kg/m3

Q: What about the mass density ([2]; 308.15 K, x2 = 0.6999) of the same compound?
A: 1171.52 ± 0.89 kg/m3

Q: What about the mass density ([2]; 308.15 K, x2 = 0.7971) of the same compound?
A: 1180.59 ± 1 kg/m3

Q: And the mass density ([2]; 308.15 K, x2 = 0.8991)?
A: 1188.53 ± 1.1 kg/m3

Q: And the mass density ([2]; 313.15 K, x2 = 0.1001)?
A: 1064.7 ± 0.33 kg/m3

Q: What about the mass density ([2]; 313.15 K, x2 = 0.1998) of the same compound?
A: 1090.93 ± 0.41 kg/m3

Q: What about the mass density ([2]; 313.15 K, x2 = 0.2997) of the same compound?
A: 1112.3 ± 0.49 kg/m3

Q: And the mass density ([2]; 313.15 K, x2 = 0.4)?
A: 1129.92 ± 0.58 kg/m3

Q: What about the mass density ([2]; 313.15 K, x2 = 0.4999) of the same compound?
A: 1144.5 ± 0.68 kg/m3

Q: What about the mass density ([2]; 313.15 K, x2 = 0.5998) of the same compound?
A: 1156.92 ± 0.78 kg/m3

Q: And the mass density ([2]; 313.15 K, x2 = 0.6999)?
A: 1167.64 ± 0.89 kg/m3

Q: What about the mass density ([2]; 313.15 K, x2 = 0.7971) of the same compound?
A: 1176.6 ± 1 kg/m3

Q: What about the mass density ([2]; 313.15 K, x2 = 0.8991) of the same compound?
A: 1184.48 ± 1.1 kg/m3
